We go through 6 compounds from patent US20190375837A1, “IMMUNOCYTOKINE COMBINATION THERAPY” (priority 2017, published 2019).

For data set [1], the system named is SKRC-52 renal cell carcinoma. Nature of the data set: Tumor therapy in SKRC-52 xenografts: compound 2 with L19-IL2. In kind it is in vivo, BALB/c nu/nu mice. The settings on record: day 17 after tumor implantation; compound 2 250 nmol/kg IV, L19-IL2 2.5 mg/Kg IV, single or combined. From the text: Animals were sacrificed when the termination criteria were reached.

Data set [2] concerns SKRC-52 renal cell carcinoma. The note with it: for anti-cancer activity compared to vehicle: 250 nmol/Kg IV per administration, n=4 per group, p<0.0001 for compounds 2 and 4; for tumor growth retardation compared with the other SMDCs: compound 2 vs compound 4.
Method: SKRC-52 cells were grown to 80% confluence and detached with Trypsin-EDTA 0.05% (Life Technologies). Cells were washed with Hank's Balanced Salt Solution (HBSS, pH 7.4) once, counted and re-suspended in HBSS to a final concentration of 5×10^7 cells/ml. Aliquots of 5×10^6 cells (100 μl of a suspension) were injected subcutaneously in the right flank of female athymic BALB/c nu/nu mice (6-8 weeks of age, Janvier).
The nature of data set [3]: in vivo. The note with it: nude, mouse.
A short description of data set [4]: in vivo. Also noted: species or system BALB/c nu/nu mice. The settings on record: female, BALB/c nu/nu, mouse, iv, 30 nmol/kg, total radioactivity. Here is the method:
(§1) Radiolabeling procedures with technetium-99m were performed following described procedures (Krall N, Pretto F, Mattarella M, Muller C, Neri D. A technetium 99m-labeled ligand of carbonic anhydrase IX selectively targets renal cell carcinoma in vivo. J Nucl Med 2016; and Cazzamalli S, Dal Corso A, Neri D. Acetazolamide serves as selective delivery vehicle for dipeptide-linked drugs to renal cell carcinoma. Mol Cancer Ther 2016). Briefly, compounds 8, 9 and 10 (60 nmol) in TBS pH 7.4 (50 μl) were separately mixed with SnCl2 (Sigma Aldrich, 200 μg) and sodium glucoheptonate (TCI, 20 mg) in H2O (150 μl). Tris-buffered saline at pH 7.4 (600 μl) was added and the resulting solution degassed for 5 min by bubbling with nitrogen gas. The eluate from a ^99mTc-generator (200 μl, ca. 200 MBq, Mallinckrodt) was added and the reaction mixture heated to 90° C. for 20 min After cooling to room temperature, analytic aliquots were analyzed by RP-HPLC (XTerra C18, 5% MeCN in 0.1% aq. TFA to 80% over 20 min on a Merck-Hitachi D-7000 HPLC system equipped with a Raytest Gabi Star radiodetector) to determine radiolabelling yields. ^99mTc incorporations >95% were routinely achieved.
(§2) Mice were randomized (n=3 per group) and injected intravenously with radiolabelled preparations of compounds 8, 9 or 10 (1-3 MBq, 30 nmol/Kg). Mice were sacrificed 6 hours after the injection by CO2 asphyxiation and organs extracted, weighted and radioactivity measured with a Packard Cobra γ-counter. Values are expressed as % ID/g ±SD (FIG. 10B).

A further data set relates to SKRC-52 xenografts. Nature of the data set: in vivo. Also noted: species or system BALB/c nu/nu mice. The note with it: mouse, iv. Here is the method:
as §1, §2

For data set [5], the system named is SKRC-52 renal cell carcinoma. Briefly: Tumor rechallenge of cured mice with SKRC-52, then treatment of regrowing tumors. In kind it is in vivo, BALB/c nu/nu mice. The note with it: L19-IL2 2.5 mg/Kg alone; 3 mice. As for the experimental part: To determine whether the CAIX ligand armed with MMAE (compound 2, see example 1) in combination with L19-IL2 caused acquired protective immunity against the tumor, mice that were cured in the therapy experiment of Example 2 were injected with 5×10^6 cells (100 μl of a suspension) SKRC-52 cells/mouse 20 days after the treatment ended. […] Mice were rearranged in two groups and treated with either the compound 2 alone (250 nmol/Kg; 2 mice), or L19-IL2 (2.5 mg/Kg; 3 mice) alone (see the schedule in FIGS. 4A and 4B).

A further data set concerns renal cell carcinoma. The settings on record: 18 patients with renal cell carcinoma; cited from earlier work.

Read-outs that look alike come from different tables or passages of the source.

A word on the tissue uptake: it is the share of the injected amount in each gram of the tissue.

As to `CC[C@H](C)[C@@H]([C@@H](CC(=O)N1CCC[C@H]1[C@H](OC)[C@@H](C)C(=O)N[C@H](C)[C@@H](O)c1ccccc1)OC)N(C)C(=O)[C@@H](NC(=O)[C@H](C(C)C)N(C)C(=O)OCc1ccc(NC(=O)[C@H](CCCNC(N)=O)NC(=O)[C@@H](NC(=O)CCCCCN2C(=O)CC(SC[C@H](NC(=O)[C@H](CC(=O)O)NC(=O)[C@H](CCCNC(=N)N)NC(=O)[C@H](CC(=O)O)NC(=O)[C@H](CCCCn3cc(CCCC(=O)Nc4nnc(S(N)(=O)=O)s4)nn3)NC(=O)C[C@H](NC(=O)C[C@H](NC(=O)CCC(C)(c3ccc(O)cc3)c3ccc(O)cc3)C(=O)O)C(=O)O)C(=O)O)C2=O)C(C)C)cc1)C(C)C` (stereo partly shown) [compound 2, AAZ*-ValCit-MMAE], in data set [1], the “antitumor activity (FIG. 3)” value is listed as “Potent antitumor activity”. In addition, in data set [2] (250 nmol/Kg IV), the durable complete response entry was “no mice had a durable complete response”; the “tolerability (body weight changes, FIG. 9B)” value is given as “very well tolerated”; the “tumor growth retardation compared with the other SMDCs” value is listed as “most potent tumor growth retardation effect”. Also, in data set [2], the “anti-cancer activity compared to vehicle” value is listed as “potent anti-cancer activity”. In data set [2] (250 nmol/Kg IV, listed as SMDC 2), the “tumor growth retardation compared with the other SMDCs” value is listed as “superior antitumor activity”. In addition, in data set [2] (50-fold dose of AAZ* ligand (1.25 μmol/Kg) directly followed by compound 2 250 nmol/Kg), the “therapeutic efficacy after presaturation with excess of free AAZ* (compound 7)” value is listed as “reduced significantly”. This compound also had an MTD in the data set “in vivo [3]” of 0.25 µmol/kg.
Turning to `CC[C@H](C)[C@@H]([C@@H](CC(=O)N1CCC[C@H]1[C@H](OC)[C@@H](C)C(=O)N[C@H](C)[C@@H](O)c1ccccc1)OC)N(C)C(=O)[C@@H](NC(=O)[C@H](C(C)C)N(C)C(=O)OCc1ccc(NC(=O)[C@H](CCCNC(N)=O)NC(=O)[C@@H](NC(=O)CCCCCN2C(=O)CC(SC[C@H](NC(=O)[C@H](CC(=O)O)NC(=O)[C@H](CCCNC(=N)N)NC(=O)[C@H](CC(=O)O)NC(=O)CCCCn3cc(CCCC(=O)Nc4nnc(S(N)(=O)=O)s4)nn3)C(=O)O)C2=O)C(C)C)cc1)C(C)C` (stereo partly shown) [compound 4, AAZ-ValCit-MMAE, reference compound], the “anti-cancer activity compared to vehicle” value in data set [2] is listed as “potent anti-cancer activity”.
On the same count and under the same terms, as for `CC[C@H](C)[C@@H]([C@@H](CC(=O)N1CCC[C@H]1[C@H](OC)[C@@H](C)C(=O)N[C@H](C)[C@@H](O)c1ccccc1)OC)N(C)C(=O)[C@@H](NC(=O)[C@H](C(C)C)N(C)C(=O)OCc1ccc(NC(=O)[C@H](CCCNC(N)=O)NC(=O)[C@@H](NC(=O)CCCCCN2C(=O)CC(SC[C@H](NC(=O)[C@H](CC(=O)O)NC(=O)[C@H](CCCNC(=N)N)NC(=O)[C@H](CC(=O)O)NC(=O)[C@H](CCCCn3cc(CCCC(N)=O)nn3)NC(=O)C[C@H](NC(=O)C[C@H](NC(=O)CCC(C)(c3ccc(O)cc3)c3ccc(O)cc3)C(=O)O)C(=O)O)C(=O)O)C2=O)C(C)C)cc1)C(C)C` (stereo partly shown) [compound 6, NH2^+-ValCit-MMAE], the entry is “did not display a difference from the vehicle-treated group”.
In the case of `CC(CCC(=O)N[C@@H](CC(=O)N[C@@H](CC(=O)N[C@@H](CCCCn1cc(CCCC(=O)Nc2nnc(S(N)(=O)=O)s2)nn1)C(=O)NCCCC[C@H](N)C(=O)N[C@@H](CC(=O)O)C(=O)N[C@@H](CS)C(=O)O)C(=O)O)C(=O)O)(c1ccc(O)cc1)c1ccc(O)cc1` [compound 8, AAZ*-^99mTc Chelator, metal not drawn], in the data set “in vivo [4]”, the tissue uptake at 6 h turned out to be 40 %ID/g. In addition, the “tumor to blood ratio” value in the data set on SKRC-52 xenografts is given as 80:1.
Regarding `N[C@@H](CCCCNC(=O)[C@H](CC(=O)O)NC(=O)CCCCn1cc(CCCC(=O)Nc2nnc(S(N)(=O)=O)s2)nn1)C(=O)N[C@@H](CC(=O)O)C(=O)N[C@@H](CS)C(=O)O` [compound 9, AAZ-^99mTc Chelator, metal not drawn, reference compound], in “in vivo [4]”, the tissue uptake at 6 h was 18 %ID/g.
For “L19-IL2: immunocytokine in which the anti-EDB antibody L19 (scFv) is conjugated to IL-2, SEQ ID NO: 22”, in data set [1], the “antitumor activity (FIG. 3)” value is listed as “Potent antitumor activity”. Besides, the “second complete tumor regression of regrowing tumors” value in data set [5] was “second complete tumor regression for all 3 animals”. Besides, the objective responses result with renal cell carcinoma is “no objective responses”.
